From PubChem BioAssay (NCI)
“And” between values parts separate entries of the source, which are not always exact repeats. Equal entries are not always repeated.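 Results reflect a 48-hour exposure of cells in 96-well plates to compound at five concentrations. The concentration for 50% growth inhibition is given as GI50. Definition used: TGI = concentration required for complete inhibition of growth.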

How the values were obtained:
Test in all cases: NCI anticancer screen, dose series, 48 h
SK-MEL-28 melanoma = tested on: SK-MEL-28 melanoma
A549 NSCLC = tested on: A549 NSCLC
HL-60(TB) leukemia = tested on: HL-60(TB) leukemia
PC-3 prostate = tested on: PC-3 prostate
HCT-116 colon = tested on: HCT-116 colon
NCI-H460 lung = tested on: NCI-H460 lung
SR leukemia = tested on: SR leukemia
A498 renal = tested on: A498 renal
OVCAR-3 ovarian = tested on: OVCAR-3 ovarian
SF-295 CNS = tested on: SF-295 CNS

Row | Structure (SMILES) | GI50 (SK-MEL-28 melanoma) [µM] | TGI (SK-MEL-28 melanoma) [µM] | GI50 (A549 NSCLC) [µM] | TGI (A549 NSCLC) [µM] | GI50 (HL-60(TB) leukemia) [µM] | TGI (HL-60(TB) leukemia) [µM] | GI50 (PC-3 prostate) [µM] | TGI (PC-3 prostate) [µM] | GI50 (HCT-116 colon) [µM] | TGI (HCT-116 colon) [µM] | GI50 (NCI-H460 lung) [µM] | TGI (NCI-H460 lung) [µM] | GI50 (SR leukemia) [µM] | TGI (SR leukemia) | TGI (A498 renal) [µM] | TGI (OVCAR-3 ovarian) [µM] | GI50 (SF-295 CNS) [µM] | TGI (SF-295 CNS) [µM] | GI50 (A498 renal) [µM] | GI50 (OVCAR-3 ovarian) [µM]
1 | COc1ccc(-c2nc(N)c(C#N)c3c2CCOc2c-3ccc3ccccc23)cc1 | 12.1 | 79.1 | 28 | 76.7 | > 100 | > 100 | 22 | > 100 | 54.3 | > 100 | 16.3 | > 100 |  |  |  |  |  |  |  | 
2 | CN(C)CCCCCNc1c2ccccc2nc2cccc([N+](=O)[O-])c12 |  | 0.0113 | 0.00571 | 0.00235 | 0.00266 | > 0.1 |  |  | 0.00583 | 0.012 | 0.00145 |  | 0.000559 | 0.00697 µM and > 0.0278 µM | 0.00758 | 0.00504 | 0.0097 |  |  | 
3 | CCC(=O)C(C(=O)CC)c1c(OC(=O)c2ccccc2)ccc(O)c1C(=O)OC |  | > 100 |  | > 100 |  | > 100 |  |  |  | > 100 |  | > 100 |  | > 100 µM | > 100 | > 100 |  | > 100 |  | 
4 | C/C(CC(=O)Nc1ccc(NC(=O)C/C(C)=N\NC(N)=O)cc1)=N/NC(N)=O |  | > 100 |  | > 100 |  | > 100 |  |  |  | > 100 |  | > 100 |  | > 62.5 µM | > 100 | > 100 |  | > 100 |  | 
5 | CC1(C)C(=O)C(=Cc2ccco2)C1=O |  | > 100 |  | > 100 |  | > 100 |  |  |  | > 100 |  | > 100 |  | > 100 µM | > 100 |  |  | > 100 |  | 
6 | CCC(C)(O)c1cn(-c2ccc(S(=O)(=O)O)cc2)nn1 (centres undefined) |  | > 100 |  | > 100 |  | > 100 |  |  |  | > 100 |  | > 100 |  |  | > 100 | > 100 |  | > 100 |  | 
7 | COc1cc(NC(C)CCCNC(C)C)c2ncccc2c1OC (centres undefined) | > 100 | > 100 | > 100 | > 100 | 14.2 | 72.4 |  |  | 27.8 | > 100 | 34.1 | > 100 | 70.8 | > 100 µM | > 100 | 51 | > 100 | > 100 | 0.416 | 6.47
8 | c1cc[c]([Sn]([O]c2cccc3cccnc23)([O]c2cccc3cccnc23)[c]2ccccc2)cc1 |  |  |  |  | 0.144 | 0.351 |  |  | 0.199 | 0.393 | 1.36 | 3.66 |  |  |  |  | 1.72 | 3.22 |  | 
9 | O=c1c2cccnc2ncn1CCCN1CCCC1 |  |  |  | > 100 |  |  |  |  |  | > 100 |  | > 100 |  | > 100 µM |  | > 100 |  | > 100 |  | 
10 | COc1ccc2c(c1)[n+](=O)c(C(=O)CC(=O)C(=O)Nc1cccc(C)c1C)c(C)n2[O-] |  | > 100 |  | > 100 |  | > 100 |  |  |  | > 100 |  | > 100 |  | > 100 µM |  | > 100 |  | > 100 |  | 
11 | COc1cc2c3c(c1OC)C(=O)C=C3N(S(=O)(=O)c1ccc(C)cc1)CC2 |  | > 100 |  | > 100 |  | > 100 |  |  |  | > 100 |  | > 100 |  | > 100 µM | > 100 | > 100 |  | > 100 |  | 
12 | O=C(NC(=O)c1cn(CCN2CCN(C(=O)NCCCCCCNC(=O)N3CCN(CCn4cc(C(=O)NC(=O)OCc5ccccc5)c(=O)[nH]c4=O)CC3)CC2)c(=O)[nH]c1=O)OCc1ccccc1 |  | > 100 |  | > 100 |  | > 100 |  |  |  | > 100 |  | > 100 |  |  |  | > 100 |  | > 100 |  | 
13 | COC(=O)/C(=C/c1ccc(OC)cc1)C(C(=O)O)=C1CCCCC1 |  |  |  | > 100 |  | > 100 |  |  |  | > 100 |  | > 100 |  | > 100 µM | > 100 |  |  | > 100 |  | 
14 | CCN(CC)c1ccc2nc3ccc(N=Nc4ccc(O)cc4)cc3[n+](-c3ccccc3)c2c1 | 5.88 | 21.5 | 4.85 | > 100 |  |  |  |  | 2.66 | 10.6 | 3.41 | > 100 |  |  | > 100 | 4.02 | 2.86 | > 100 | > 100 | 0.359
15 | C=C(CO)CC(/C=C(\C)CC/C=C(\C)CCl)OC(C)=O (centres undefined) |  | > 100 |  | > 100 |  | > 100 |  |  |  | > 100 |  | > 100 |  |  | > 100 | > 100 |  | > 100 |  | 
16 | C1CC2=C(C1)C1=S(S2)SC2=C1CCC2 |  | > 100 |  | > 100 |  | > 100 |  |  |  | > 100 |  | > 100 |  |  | 87.4 | > 100 |  | > 100 |  | 
17 | O=c1[nH]c(=O)n(C2CC(O)C(CO)O2)cc1COCC(F)(F)F (centres undefined) |  |  |  | > 100 |  | > 100 |  |  |  |  |  | > 100 |  |  | > 100 | > 100 |  | > 100 |  | 

Row | Structure (SMILES) | GI50 (SK-MEL-28 melanoma) [µM] | TGI (SK-MEL-28 melanoma) [µM] | GI50 (A549 NSCLC) [µM] | TGI (A549 NSCLC) [µM] | GI50 (HL-60(TB) leukemia) [µM] | TGI (HL-60(TB) leukemia) [µM] | GI50 (PC-3 prostate) [µM] | TGI (PC-3 prostate) [µM] | GI50 (HCT-116 colon) [µM] | TGI (HCT-116 colon) [µM] | GI50 (NCI-H460 lung) [µM] | TGI (NCI-H460 lung) [µM] | GI50 (SR leukemia) [µM] | TGI (SR leukemia) | TGI (A498 renal) [µM] | TGI (OVCAR-3 ovarian) [µM] | GI50 (SF-295 CNS) [µM] | TGI (SF-295 CNS) [µM] | GI50 (A498 renal) [µM] | GI50 (OVCAR-3 ovarian) [µM]
18 | CC(C)C(=S)N(C)O |  | > 100 |  | > 100 |  | > 24.2 |  |  |  | 19.9 |  | > 75.5 |  | > 100 µM | 63.1 | > 100 |  | > 100 |  | 
19 | CCN(CC)c1ccc(N=Nc2ccc(-c3nc4cccn(C)c-4n3)cc2)cc1 |  |  |  | 25.6 |  | 4.79 |  |  |  | 15.6 |  | 17.3 |  | 14.8 µM | 28.3 | 23.1 |  | 19.4 |  | 
20 | CC1=C(C(=O)Nc2ccccc2)C(c2cc(Cl)cc(Cl)c2)C(C(=O)Nc2ccccc2)=C(C)N1 |  | 30.2 |  | 58.8 |  | 6.52 |  |  |  | 21.6 |  | 62.8 |  | 12.6 µM | 43.1 | 22.1 |  | 28.8 |  | 
21 | Clc1ccc(OCc2nnc3n2N=C(c2ccccc2)CS3)c(Cl)c1 |  | > 100 |  | > 100 |  | > 100 |  |  |  | > 100 |  | > 100 |  | > 100 µM | 76.8 |  |  | 86.6 |  | 
22 | CCOC(=O)C1=C(C(=O)OCC)C2(c3ccccc3)N(O1)c1ccccc1C2(C)C (centres undefined) |  | > 100 |  | > 100 |  | 53 |  |  |  | > 100 |  | > 100 |  |  | > 100 | > 100 |  | > 100 |  | 
23 | O=C1C=C(Nc2ccc(S(=O)(=O)Nc3ncccn3)cc2)c2ccccc2C1=O |  | 60.6 |  | 57.9 |  | 72.7 |  |  |  | 35.9 |  | 42.7 |  | 95.9 µM | 69.4 | 30.5 |  | 35 |  | 
24 | CC(C)(C)c1nc(-c2cccc(NS(=O)(=O)c3c(F)cccc3F)c2F)c(-c2ccnc(N)n2)s1 | < 0.01 | > 100 | 26.1 | > 100 | 4.68 | 37.4 | 41.3 | > 100 | 20.4 | > 100 | 30.4 | > 100 |  |  |  | > 100 | 55.6 | > 100 |  | 35.6
25 | COC(=O)N/N=C(\C)C(CN(C)C)C(c1ccccc1)c1c(O)c2ccccc2oc1=O (centres undefined) |  | > 100 |  | > 100 |  | > 100 |  |  |  | > 100 |  |  |  | > 100 µM | > 100 |  |  | > 100 |  | 
26 | C/C(O)=C(\N=O)C(=O)NCc1ccccc1 |  | > 100 |  | > 100 |  | > 100 |  |  |  | > 100 |  | > 100 |  | > 100 µM | > 100 | > 100 |  | > 100 |  | 
27 | CCC[CH2][Sn]([CH2]CCC)([O]C(=O)c1cccc(F)c1F)[O]C(=O)c1cccc(F)c1F | 0.933 | 2.13 | 5.37 | 17.5 | 0.42 | 2.4 |  |  | 1.2 | 2.43 | 1.7 | 3.24 | 0.371 | 3.49 µM | 2.39 | 2.68 | 1.52 | 2.85 | 1.15 | 1.37
28 | CCCCCCCCCCOC(=O)c1cc[n+](C)cc1 |  | 31.3 |  | 31 |  | 35.4 |  |  |  | 36.6 |  | 38.8 |  | 32.7 µM | 36.9 | 28.9 |  | 30.3 |  | 
29 | c1ccc(C2CC(c3ccc4ccccc4c3)=Nc3ccccc3S2)cc1 (centres undefined) |  | 33.1 |  | 38.8 |  | 55.9 |  |  |  | 30 |  | 29.1 |  | > 100 µM | 31.1 | 38.7 |  | 31.7 |  | 
30 | COc1ccc2c(c1)CCc1c(CO)c(COC(=O)NC(C)C)n(C)c1-2 |  | 28.6 |  | > 78.5 |  | 5.23 |  |  |  | 11.6 |  | 26.5 |  |  | 77.5 | 54.9 |  | 57.7 |  | 
31 | N#C/C(=C\c1ccccc1)C(NO)Nc1ccccc1 (centres undefined) |  | > 100 |  | > 100 |  | > 100 |  |  |  | > 100 |  | > 100 |  | > 100 µM | > 100 | > 100 |  | > 100 |  | 
32 | Cc1ccccc1N=Nc1c(-c2ccccc2)nn(C(=O)CC(=O)Nc2cccc(Cl)c2)c1-c1ccccc1 |  | > 31.6 |  |  |  | 24.5 |  |  |  | 17.8 |  | > 31.6 |  | 20.3 µM | 29.9 | > 31.6 |  | > 31.6 |  | 
33 | CCCCN1C(=O)/C(=c2\sc3n(c2=O)C2C(NN=3)N(CC)C(=O)N2CC)c2ccccc21 (centres undefined) |  |  |  |  | 1.05 | 3.46 |  |  |  |  |  |  | 0.36 |  | 0.721 |  | 0.456 | 2.26 | 0.169 | 
